Source: patent US11331375B2, “Compositions and methods for regulating leukocyte adhesion” (University of Virginia Patent Foundation, priority 2015, dated 2022)

Tested on: C57B1/6J mice
Assay: Intravital microscopy of cremaster muscle for leukocyte adhesion and emigration
Format: in vivo, mouse
Conditions: topical TNFα on cremaster, after 120 minutes
Procedure: Mice were prepared for intravital microscopy of the cremaster muscle as described previously^25. Briefly, mice were anesthetized with ketamine hydrochloride (150 mg/kg, IP) and xylazine (7.5 mg/kg, IP). The cremaster was isolated, laid over a viewing pedestal, superfused with bicarbonate-buffered saline. After 30 min equilibration, a venule with a wall shear rate (WSR) of ≥500/s, diameter between 20 μm and 40 μm, and the least number of adherent and emigrated leukocytes was chosen for further study. A 1 min baseline recording was made, after which superfusion was stopped, and 50 μl TNFα (1.7 ng/ml in 0.1% BSA) or vehicle control was added under a saran wrap cover every 30 min. 1 min recordings were made just prior to each addition, for 3 hrs. The TNFα was initially reconstituted in PBS at 3.4 ng/ml and 150 μl aliquots were frozen. An aliquot was mixed 1:1 with BBS containing 0.2% BSA at the time of the experiment. Leukocyte adhesion and emigration were determined by off-line analysis. Leukocytes were considered adherent if they stopped for at least 30 s (expressed as #/mm^2 vessel wall), and emigrated leukocytes were leukocytes identified in the interstitium (expressed as #cells/mm^2 tissue). Data are expressed as mean±SEM (n=6-7 independent animals/group).

## TNFα
  increase of leukocyte adhesion: ~2.5 fold
  increase of leukocyte emigration: ~3.5 fold
